Read-outs that look alike come from different tables or passages of the source.
Key:
[1] = tested on: MCF-7 cells; assay: In vitro test of cell activity (MCF-7 cells, insulin stimulation, ELISA-One fluorescence); type: cell-based; details: for inhibition at 0.25 µM: conc. 0.25 μM; for inhibition at 0.5 µM: conc. 0.5 μM
How it was run: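 MCF-7 cells, seeded at 2.5×10^4/well in 10% FBS medium, were given compound in serum-free medium for 2 h at one concentration (screen) or a series (IC50). Insulin stimulation followed at […] final for 30 min; lysates assayed by ELISA-One sandwich immunoassay with fluorescence read-out.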

[2] = molecular target: T1, PI3K (p110α) kinase (Homo sapiens, UniProt P42336); assay: PI3K (p110α) kinase assay (PI3K HTRF Assay); type: biochemical; details: in vitro enzyme activity assay, 10 μM PIP2, read-out: PI3K (p110α) enzyme activity_IC50
T1 construct: made in house
Excerpt: Conclusion: The compounds of the present invention have significant inhibitory effect on mTOR/PI3K. Example In Vitro Enzyme Activity Assay 1. The experimental procedures and methods of PI3K (p110α) kinase assay: 1) Experimental Objective
The objective was to evaluate the inhibitory effect of the subject samples on PI3K (p110α) kinase activity at molecular level.
PerkinElmer Envision 2104 Multilabel Reader.
PI 3-Kinase HTRF Assay (384 wells) was purchased from Upstate (Millipore) company: PI3K (p110α) kinase was made in our lab.
c) Experimental procedures
Each solution was prepared according to the instructions provided in the Kinase PI 3-Kinase HTRF Assay. The kinase reaction was carried out in white 384-well plates (Proxiplate-384 plus), 0.5 μl of DMSO (the concentration was consistent with the highest concentration of DMSO for the test compounds) was added to each of the two control wells with and without enzyme, and then 0.5 μl of a series of different concentrations of the test compounds was added to each well to be tested. The kinase reaction liquid (10 μM substrate PIP2, 0.5 ng PI3K (p110α)) was added to the control well containing enzyme and the test wells, while only working reaction liquid (10 μM substrate PIP2) was added to the control well without enzyme, and finally, 5 μM ATP working reaction liquid was added to activate the reaction. After the reaction was carried out at room temperature for 30 min, the stop solution was added to each well to terminate the kinase reaction. After the mixture was fully mixed, the detection liquid was added to each well and fully mixed. The plate was sealed with Parafilm and placed in the dark. After incubated overnight, the mixture was detected.
The IC50 value was calculated through the GraphPad software after plotting the relative inhibitory rate versus concentration.

[3] = Homo sapiens, MCF7, MCF-7 cells, read-out: IC50 p-AKT
[4] = Homo sapiens, MCF7, MCF-7 cells, read-out: % inhibition AKT
[5] = Homo sapiens, MCF7, MCF-7 cells, read-out: % inhibition p70s6k

T1 sequence (P42336 whole entry): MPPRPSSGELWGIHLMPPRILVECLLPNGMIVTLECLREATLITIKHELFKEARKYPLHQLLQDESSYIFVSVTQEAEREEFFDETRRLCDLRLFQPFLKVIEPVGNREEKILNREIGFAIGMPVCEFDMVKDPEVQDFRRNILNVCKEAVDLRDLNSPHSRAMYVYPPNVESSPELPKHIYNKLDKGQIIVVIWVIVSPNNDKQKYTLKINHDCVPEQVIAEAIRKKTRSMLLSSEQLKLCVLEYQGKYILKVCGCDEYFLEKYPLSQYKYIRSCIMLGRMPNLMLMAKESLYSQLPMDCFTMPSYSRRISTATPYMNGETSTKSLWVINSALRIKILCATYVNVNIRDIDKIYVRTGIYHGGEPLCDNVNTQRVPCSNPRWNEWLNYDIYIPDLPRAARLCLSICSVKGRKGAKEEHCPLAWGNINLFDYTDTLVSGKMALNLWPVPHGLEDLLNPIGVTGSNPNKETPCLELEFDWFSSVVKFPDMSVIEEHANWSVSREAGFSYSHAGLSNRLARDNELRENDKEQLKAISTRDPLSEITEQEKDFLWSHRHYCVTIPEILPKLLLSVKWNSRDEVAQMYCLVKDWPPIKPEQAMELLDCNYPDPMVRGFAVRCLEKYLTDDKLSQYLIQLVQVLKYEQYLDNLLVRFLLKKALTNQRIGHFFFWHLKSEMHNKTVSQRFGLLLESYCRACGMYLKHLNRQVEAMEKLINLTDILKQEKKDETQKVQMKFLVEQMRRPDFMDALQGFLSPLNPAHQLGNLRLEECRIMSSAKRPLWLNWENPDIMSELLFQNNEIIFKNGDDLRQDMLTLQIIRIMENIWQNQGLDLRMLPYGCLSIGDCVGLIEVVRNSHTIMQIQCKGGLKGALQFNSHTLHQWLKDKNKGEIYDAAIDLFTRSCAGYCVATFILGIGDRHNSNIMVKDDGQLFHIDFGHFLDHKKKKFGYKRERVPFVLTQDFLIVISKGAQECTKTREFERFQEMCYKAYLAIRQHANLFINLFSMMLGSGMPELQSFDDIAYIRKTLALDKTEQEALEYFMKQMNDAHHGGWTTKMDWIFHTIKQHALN

IC50 [1, 3] [µM]	Structure (SMILES)	also measured
≤ 0.05	COc1ncc(-c2ccc3ncc(OCCOC(C)C)c(=O)n3c2)cc1NS(=O)(=O)c1sc(C)nc1C [compound 194]	
≤ 0.05	COCCOc1cnc2ccc(-c3cnc(OC)c(NS(=O)(=O)c4sc(Cl)cc4C)c3)cn2c1=O [compound 196]	
≤ 0.05	COc1ncc(-c2ccc3ncc(OCC4CCOCC4)c(=O)n3c2)cc1NS(=O)(=O)c1sc(C)nc1C [compound 198]	
≤ 0.05	COc1ncc(-c2ccc3ncc(OCCCF)c(=O)n3c2)cc1NS(=O)(=O)c1sc(C)nc1C [compound 201]	
0.05 to 0.1	COCCOc1cnc2ccc(-c3ccc(OC)c(NS(=O)(=O)c4ccc(F)cc4F)c3)cn2c1=O [compound 205]	
0.05 to 0.1	COc1ncc(-c2ccc3ncc(OC4CCC(OC)CC4)c(=O)n3c2)cc1NS(=O)(=O)c1sc(C)nc1C (stereo not drawn) [compound 207]	
≤ 0.05	COc1ncc(-c2ccc3ncc(OCC(C)(C)OC)c(=O)n3c2)cc1NS(=O)(=O)c1sc(C)nc1C [compound 209]	
> 0.25	COCCOc1cnc2ccc(-c3cnc(OC)c(NS(=O)(=O)C4CCCCC4)c3)cn2c1=O [compound 212]	
0.05 to 0.1	COCCOc1cnc2ccc(-c3cnc(OC)c(NS(=O)(=O)c4ccc(F)cc4Cl)c3)cn2c1=O [compound 213]	
≤ 0.05	COc1ncc(-c2ccc3ncc(OCC4COC4)c(=O)n3c2)cc1NS(=O)(=O)c1ccc(F)cc1Cl [compound 214]	
> 0.25	CNc1ncc(-c2ccc3ncc(OCCOC)c(=O)n3c2)cc1NS(=O)(=O)c1ccc(F)cc1F [compound 215]	
0.1 to 0.25	COc1ncc(-c2ccc3ncc(-n4ccc(C)n4)c(=O)n3c2)cc1NS(=O)(=O)c1sc(C)nc1C [compound 218]	inhibition at 0.25 µM [1, 4]: 85.2%; inhibition at 0.25 µM [1, 5]: 85%; IC50 ([1]; Homo sapiens, MCF7, MCF-7 cells, read-out: IC50 p-p70S6K): 0.1 to 0.25 µM
> 0.25	COCCOc1ncc(-c2ccc3ncc(Cl)c(=O)n3c2)cc1NS(=O)(=O)c1ccc(F)cc1F [compound 231, N-[5-(3-chloro-4-oxo-4H-pyrido[1,2-a]pyrimidin-7-yl)-2-(2-methoxy-ethoxy)-pyridin-3-yl]-2,4-difluorobenzsulfamide]	
> 0.25	COCCCOc1ncc(-c2ccc3ncc(Cl)c(=O)n3c2)cc1NS(=O)(=O)c1ccc(F)cc1F [compound 232]	
> 0.25	COc1ncc(-c2ccc3nn(C)c(=O)n3c2)cc1NS(=O)(=O)c1ccc(F)cc1F [compound 234]	
0.1 to 0.25	COc1ncc(-c2ccc3n[nH]c(=O)n3c2)cc1NS(=O)(=O)c1ccc(F)cc1F [compound 235]	
≤ 0.05	COCc1cnc2ccc(-c3cnc(OC)c(NS(=O)(=O)c4sc(C)nc4C)c3)cn2c1=O [compound 239, N-(2-methoxy-5-(3-(methoxymethyl)-4-oxo-4H-pyrido[1,2-a]pyrimidin-7-yl)pyridin-3-yl)-2,4-dimethylthiazolyl-5-sulfamide]	
0.05 to 0.1	COCCOc1cnc2ccc(-c3cnc(OC)c(NS(=O)(=O)c4ccccc4F)c3)cn2c1=O [compound 254]	
0.1 to 0.25	COCCOc1cnc2ccc(-c3cnc(OC)c(NS(=O)(=O)c4cc(F)c(F)cc4Cl)c3)cn2c1=O [compound 266]	
0.05 to 0.1	COCCOc1cnc2ccc(-c3cnc(OC)c(NS(=O)(=O)c4ccc(F)c(F)c4F)c3)cn2c1=O [compound 274]	
≤ 0.05	COCCOc1cnc2ccc(-c3cnc(OC)c(NS(=O)(=O)c4ccc(F)cc4C(F)(F)F)c3)cn2c1=O [compound 278]	
≤ 0.05	CCc1ccc(S(=O)(=O)Nc2cc(-c3ccc4ncc(OCCOC)c(=O)n4c3)cnc2OC)c(F)c1 [compound 281]	

Second part, the compound before the results:

Structure (SMILES)	IC50 [1, 3] [µM]	also measured
COCCOc1cnc2ccc(-c3cnc(OC)c(NS(=O)(=O)c4sc(OC)nc4C)c3)cn2c1=O [compound 195]	≤ 0.05	
COc1ncc(-c2ccc3ncc(OCC4(C)COC4)c(=O)n3c2)cc1NS(=O)(=O)c1sc(C)nc1C [compound 197]	≤ 0.05	
CCOCCOc1cnc2ccc(-c3cnc(OC)c(NS(=O)(=O)c4sc(C)nc4C)c3)cn2c1=O [compound 199]	≤ 0.05	
COc1ncc(-c2ccc3ncc(OCC4CCOC4)c(=O)n3c2)cc1NS(=O)(=O)c1sc(C)nc1C (stereo not drawn) [compound 200]	≤ 0.05	
COc1ncc(-c2ccc3ncc(OCCOCC(F)(F)F)c(=O)n3c2)cc1NS(=O)(=O)c1sc(C)nc1C [compound 202]	≤ 0.05	
COc1ncc(-c2ccc3ncc(OC4COC4)c(=O)n3c2)cc1NS(=O)(=O)c1sc(C)nc1C [compound 203]	≤ 0.05	
COc1ncc(-c2ccc3ncc(OCCOC4CC4)c(=O)n3c2)cc1NS(=O)(=O)c1sc(C)nc1C [compound 204]	≤ 0.05	
COc1ncc(-c2ccc3ncc(OC4CCC(OC)CC4)c(=O)n3c2)cc1NS(=O)(=O)c1sc(C)nc1C (stereo not drawn) [compound 208]		IC50 ([1]; MCF-7 cells, read-out: IC50 p-AKT): ≤ 0.05 µM
COc1ncc(-c2ccc3ncc(-n4ccc(C)n4)c(=O)n3c2)cc1NS(=O)(=O)c1ccc(F)cc1F [compound 216, 2,4-difluoro-N-(2-methoxy-5-(3-(3-methyl-1H-pyrazol-1-yl)-4-oxo-4H-pyrido[1,2-a]pyrimidin-7-yl)pyridin-3-yl)benzsulfamide]		inhibition at 0.25 µM [1, 4]: 34.1%; inhibition at 0.25 µM [1, 5]: 31%
COc1ncc(-c2ccc3ncc(-n4ccc(C)n4)c(=O)n3c2)cc1NS(=O)(=O)c1ccc(Cl)s1 [compound 217]		inhibition at 0.25 µM [1, 4]: 54%; inhibition at 0.25 µM [1, 5]: 67.7%
COc1ncc(-c2ccc3ncc(-n4ccc(C)n4)c(=O)n3c2)cc1NS(=O)(=O)c1ccc(F)cc1Cl [compound 219]		inhibition at 0.25 µM [1, 4]: 41.7%; inhibition at 0.25 µM [1, 5]: 13.4%
COc1ncc(-c2ccc3ncc(-n4ccc(C)n4)c(=O)n3c2)cc1NS(=O)(=O)c1ccccc1Cl [compound 220]		inhibition at 0.25 µM [1, 4]: 51.2%; inhibition at 0.25 µM [1, 5]: 11%
COc1ncc(-c2ccc3nc(C)cc(=O)n3c2)cc1NS(=O)(=O)c1ccc(F)cc1F [compound 221, 2,4-difluoro-N-(2-methoxy-5-(2-methyl-4-oxo-4H-pyrido[1,2-a]pyrimidin-7-yl)pyridin-3-yl)benzsulfamide]		inhibition at 0.25 µM [1, 4]: -42%; inhibition at 0.25 µM [1, 5]: 6.8%
COc1ncc(-c2ccc3nc(C)cc(=O)n3c2)cc1NS(=O)(=O)c1ccc(F)cc1Cl [compound 222]		inhibition at 0.25 µM [1, 4]: -26.7%; inhibition at 0.25 µM [1, 5]: 2%
COc1ncc(-c2ccc3nc(C)cc(=O)n3c2)cc1NS(=O)(=O)c1ccc(C(F)(F)F)cc1 [compound 223]		inhibition at 0.25 µM [1, 4]: 17.9%; inhibition at 0.25 µM [1, 5]: -1.5%
COc1ncc(-c2ccc3nc(C)cc(=O)n3c2)cc1NS(=O)(=O)c1cc(F)ccc1F [compound 226]		inhibition at 0.5 µM [1, 4]: 14.8%; inhibition at 0.5 µM [1, 5]: 4.6%
COc1ncc(-c2ccc3nc(C)cc(=O)n3c2)cc1NS(=O)(=O)c1ccc(F)cc1C [compound 229]		inhibition at 0.5 µM [1, 4]: 31.7%; inhibition at 0.5 µM [1, 5]: 1.4%
COc1ncc(-c2ccc3nc(C)cc(=O)n3c2)cc1NS(=O)(=O)c1ccccc1F [compound 230]		inhibition at 0.5 µM [1, 4]: 43.5%; inhibition at 0.5 µM [1, 5]: 8.8%
COc1ncc(-c2ccc3nc(N)cc(=O)n3c2)cc1NS(=O)(=O)c1sc(C)nc1C [compound 236, N-(5-(2-amino-4-oxo-4H-pyrido[1,2-a]pyrimidin-7-yl)-2-methoxypyridin-3-yl)-2,4-dimethylthiazolyl-5-sulfamide]	0.05 to 0.1	
COc1ncc(-c2ccc3ncc(OCC4COC4)c(=O)n3c2)cc1NS(=O)(=O)c1cccc(C)c1 [compound 248]	0.05 to 0.1	
COc1ncc(-c2ccc3ncc(OCC4COC4)c(=O)n3c2)cc1NS(=O)(=O)c1ccccc1F [compound 256]	≤ 0.05	
COCCOc1cnc2ccc(-c3cnc(OC)c(NS(=O)(=O)c4cc(C)c(Cl)cc4Cl)c3)cn2c1=O [compound 258]		IC50 [2]: 0.001 to 0.01 µM
COCCOc1cnc2ccc(-c3cnc(OC)c(NS(=O)(=O)c4cc(C)c(Cl)cc4F)c3)cn2c1=O [compound 269]		IC50 [2]: 0.001 to 0.01 µM
COCCOc1cnc2ccc(-c3cnc(OC)c(NS(=O)(=O)c4cc(Cl)ccc4F)c3)cn2c1=O [compound 272]	≤ 0.05	
COCCOc1cnc2ccc(-c3cnc(OC)c(NS(=O)(=O)c4cc(Cl)c(F)cc4F)c3)cn2c1=O [compound 273]	0.1 to 0.25	
COCCOc1cnc2ccc(-c3cnc(OC)c(NS(=O)(=O)c4ccc(F)cc4Br)c3)cn2c1=O [compound 279]	≤ 0.05	
CCc1cc(F)ccc1S(=O)(=O)Nc1cc(-c2ccc3ncc(OCCOC)c(=O)n3c2)cnc1OC [compound 280]	≤ 0.05	
COCCOc1cnc2ccc(-c3cnc(OC)c(NS(=O)(=O)c4cnc(C)cc4C)c3)cn2c1=O [compound 282]		IC50 [2]: ≤ 0.001 µM
